Source: US3987055A, “Azasteroids compounds and derivatives” (The Board of Regents for the Oklahoma Agricultural & …, priority 1974, dated 1976)
Several values for one entry are separate records, joined by “and”; a condition that tells them apart may be missing. Equal entries are not always repeated.

Assays:
L-M cells [1] = experiment: uptake and incorporation of 3H-thymidine, 3H-uridine and 14C-leucine by L-M cells; format: cell-based, mouse; settings: 15 μg/ml
Experimental: ^3 H-Thymidine (10 μCi), or ^3 H-uridine (10 μCi), or ^14 C-leucine (5 .rho.Ci), was added to suspension cultures of L-M cells (8 × 10^5; /ml) in McCoy's 5a modified medium containing either 0 or 15 μg/ml of compound 5c. The cells were incubated at 37° C. One ml samples were removed at varying intervals and the rates of uptake and incorporation were determined from the liner portion of radioactivity versus time curves.

[2] = tested on: acid phosphatase, KB and L-M cells; experiment: relative acid phosphatase staining (permeability of lysosomal membrane) of KB and L-M cells; format: cell-based, human (KB) and mouse (L-M); set-up: key to Relative acid phosphatase staining: light: cells showing only a few scattered granules; medium: more dense but distinct isolated granules were still detected; heavy: a more intense staining with fewer discrete granules; settings: 20 μg/ml
Experimental: KB and L-M cells were grown on coverslips in medium 199 with 10% calf serum for the 24 hour growth prior to staining in the presence or absence of compound 5c (20 μg/ml) or compound 5d (20 μg/ml). The cells were washed in Hanks' salt solution, incubated at 37° C in Gomori's substrate solution for 1, 2, or 3 hours, washed, treated with a 1% solution of ammonium sulfide, washed, mounted and observed microscopically. Light staining was designated as cells showing only a few scattered granules; medium staining was more dense but distinct isolated granules were still detected; and heavy staining a more intense staining with fewer discrete granules. Heavy staining denotes increased phosphatase activity.
The acid phosphatase activity was measured in KB and L-M cells grown in medium in the presence or absence compound 5c or 5d (20 μg/ml) for 2 or 24 hours prior to staining (Table 2). Quantitative evaluation of the relative staining intensity of the lysosomes was compared in the treated and untreated cells. […] Thus, cells grown in the presence of compound 5c accumulate the phosphatase substrate within the lysosomes much more rapidly than the control or compound 5d treated cells indicating the compounds ability to alter membrane permeability and thus regulate the accumulation of essential metabolites. Control of this cellular capacity permits regulation of cell division so important in cancer chemotherapy. Since the permeation of the substrate is the rate-limiting step in the phosphatase determination, compound 5c produces a modification of the lysosomal membrane which increased the permeability of the lysosome to the substrate. The results also emphasize the difference in biological activity of compound 5c and 5d type molecules which chemically are similar except at C-3. Differences in the biological activity have been observed when the compounds were tested using various bacteria.

KB cells [3] = experiment: growth inhibition of human tumor KB cell line; format: cell-based; settings: 10 μg/ml or greater, read-out: concentration at which growth was inhibited
Experimental: For example, growth of both the human tumor KB* and the mouse L-M** cell lines was inhibited when the cells were grown in media containing 10 μg/ml or greater

KB cells [4] = experiment: colony and cell morphology of KB cells; format: cell-based, human; settings: 10 and 20 μg/ml
Experimental: Differences in cell morphology were also observed. […] Since the difference in staining density could be the result of modification of intracellular structures, such as lysosomes, experiments were performed to determine the effect of the compounds on the permeability of lysosomal membrane.

rat testis tubules [5] = experiment: lysine-U-14C incorporation into protein by rat testis tubules in vitro; format: cell-based
Experimental: (§1) For these investigations the compounds were diluted in a minimal amount of ethanol and further diluted in saline (0.85%) so that the final concentration was 1 mg/ml. The compounds were placed in solution and gassed under N2 and stored at 5° C until used 2 days later for the in vitro incubation studies. Details of the in vitro incubation procedures may be found in Endocrinology 89:791-800 (1971).
The effects of the compounds on the incorporation of lysine -U-^14 C into trichloroacetic (TCA) precipitable protein of rat testes was investigated by incubating about 200 mg of teased testis tubules from mature rats in a 25 ml Erlenmeyer flask containing 3 ml of Krebs Ringer bicarbonate buffer (pH 7.4), L-lysine-U-^14 C (0.5 μCi; 0.1mM), glucose (10 mM) and 0.25 ml of the azasteroid to be tested. The flasks were incubated for 1 hour at 33° C under 95% O2 : 5% CO2 and the TCA precipitable protein was isolated and an aliquot used to measure radioactivity.
CPM = counts per minute. All compounds were tested in a concentration of […]

KB cells [6] = experiment: relative plating efficiency of KB cells (colony formation, 7 days); format: cell-based, human
Experimental: The KB cells were plated in plastic tissue culture dishes and grown in a 5% CO2 gas phase incubator for 7 days. The medium was removed, the plates washed with Hanks' salt solution and the cells stained with a 0.5% aqueous crystal violet solution, rinsed and dried. The colonies were counted and the relative plating efficiency calculated using the number of control colonies as 100 percent.

[7] = tested on: acid phosphatase, KB and L-M cells; experiment: relative acid phosphatase staining (permeability of lysosomal membrane) of KB and L-M cells; format: cell-based, human (KB) and mouse (L-M); settings: control experiment with Triton X-100
rat testis tubules [8] = experiment: glucose oxidation (glucose-U-14C) by rat testis tubules in vitro; format: cell-based
Experimental: as §1
The effects of these compounds on glucose oxidation by testis tubules was examined by incubating about 200 mg of teased testis tubules from mature rats in a 25 ml Erlenmeyer flask containing 3 ml of Krebs Ringer bicarbonate buffer (pH 7.4), D-glucose-U-^14 C (0.5 μCi; 10mM) and 0.25 ml of the azasteroid (1 mg/ml) to be tested. The flasks were incubated for 2 hours at 33° C under 95% O2 :5% CO2. The reaction was terminated by adding 0.25 ml of 5 N H2 SO4. Carbon dioxide was trapped in 0.25 ml of hydroxide of Hyamine. The radioactivity present in the Hyamine was determined by liquid scintillation spectrometry. This table includes a detailed summary of the results obtained and an average for each compound. […] Thus, the compounds have potential for antifertility activity in the control of wild rodent populations and possibly stray animals such as dogs and cats.
CPM = counts per minute. Glucose-U-^14 C activity was 0.5 millicurie.
All compounds were tested in a concentration of 250 mg per flask.

L-M cells [9] = experiment: growth inhibition of mouse L-M cell line; format: cell-based
Experimental: Cells (1 × 10^5 /ml) were added to the "incubated" compound-containing medium.

[10] = individual flask, 250 mg per flask (so in the source), 1 hour, 33° C
[11] = individual flask, 250 mg per flask (so in the source), 2 hours, 33° C

Structure (SMILES): CC12CCN=C1c1ccc3cc(O)ccc3c1CC2 (stereo not shown) [Compound 5c, 1,10,11,11a-tetrahydro-11a-methyl-2H-naphth[1,2-g]indol-7-ol]
- uptake of radioactive thymidine, uridine, and leucine (L-M cells [1]): inhibited
- Cell Pool (L-M cells [1]; 3H-thymidine): 700 Cpm/8×10^5 cells/hr
- Rate of incorporation (L-M cells [1]; 3H-thymidine): 1,300 Cpm/8×10^5 cells/hr
- Rate of uptake (L-M cells [1]; 3H-thymidine): 2,000 Cpm/8×10^5 cells/hr
- Cell Pool (L-M cells [1]; 3H-uridine): 1,600 Cpm/8×10^5 cells/hr
- Rate of incorporation (L-M cells [1]; 3H-uridine): 1,400 Cpm/8×10^5 cells/hr
- Rate of uptake (L-M cells [1]; 3H-uridine): 3,000 Cpm/8×10^5 cells/hr
- Cell Pool (L-M cells [1]; 14C-leucine): 1,200 Cpm/8×10^5 cells/hr
- Rate of incorporation (L-M cells [1]; 14C-leucine): 2,800 Cpm/8×10^5 cells/hr
- Rate of uptake (L-M cells [1]; 14C-leucine): 4,000 Cpm/8×10^5 cells/hr
- inhibition at 15 µg/mL (L-M cells [1]; Mus musculus, read-out: reduction of radioactivity present in the pool for each of the precursors): ~66%
- Relative acid phosphatase staining ([2]; 24 h, 1 hour in substrate): light
- Relative acid phosphatase staining ([2]; 24 h, 2 hours in substrate): medium
- Relative acid phosphatase staining ([2]; 24 h, 3 hours in substrate): heavy
- staining reaction versus control ([2]; 24 h, all three substrate incubation times): more intense staining reaction
- staining intensity versus untreated cells ([2]; cells treated for 2 hours): indistinguishable from untreated cells
- minimal effective concentration (KB cells [3]): ≥ 10 µg/mL
- cell division (KB cells [4]): did not divide, or if limited division occurred, only a few small colonies were formed containing a small number of cells
- density of treated cells (KB cells [4]): less uniform density with areas of heavy and light staining
- position of nuclei in treated cells (KB cells [4]): located at the periphery of the cell which contained little cytoplasm
- AVERAGE OF TWO FLASK lysine incorporation (rat testis tubules [5]; average of two flasks): 1,944 CPM/100 mg tissue
- lysine incorporation into protein per 100 mg (rat testis tubules [5]; [10]): 1,616 CPM/100 mg and 2,273 CPM/100 mg
- lysine incorporation into protein per flask (rat testis tubules [5]; [10]): 3,325 CPM/FLASK and 4,575 CPM/FLASK
- effect on the relative plating efficiency (KB cells [6]; 1 μg/ml): little effect
- activity at 1 µg/mL (KB cells [6]; Homo sapiens, KB, 168 h, 1 μg/ml): 91%
- activity at 10 µg/mL (KB cells [6]; Homo sapiens, KB, 168 h, 10 μg/ml): 38%
- cytotoxicity at 10 µg/mL (KB cells [6]; Homo sapiens, KB, 168 h, 10 μg/ml, 7 days, read-out: cells killed): 62%
- activity at 20 µg/mL (KB cells [6]; Homo sapiens, KB, 168 h, 20 μg/ml): 17%
- cytotoxicity at 20 µg/mL (KB cells [6]; Homo sapiens, KB, 168 h, 20 μg/ml, 7 days, read-out: cells killed): 83%
- induction of synthesis of acid phosphatase [7]: does not induce synthesis of acid phosphatase in the cell
- AVERAGE glucose oxidation (rat testis tubules [8]; average of flasks): 8,181 CPM/100 mg TISSUE
- depression of glucose oxidation in vitro (rat testis tubules [8]; in words): depressed glucose oxidation in vitro more than compounds 4 c and 11b
- GLUCOSE OXIDATION per 100 mg (rat testis tubules [8]; [11]): 6,046 CPM/100 mg and 10,317 CPM/100 mg
- GLUCOSE OXIDATION per flask (rat testis tubules [8]; [11]): 12,450 CPM/FLASK and 21,027 CPM/FLASK
- % DEVIATION FROM CONTROL, glucose oxidation (rat testis tubules [8]; versus saline, 120 min): +20.8%
- growth rate versus control (L-M cells [9]; 1 μg/ml): same growth rate as the control
- growth inhibition at 20 μg/ml (L-M cells [9]; 20 μg/ml): marked inhibition
- increase in cell numbers (L-M cells [9]; 20 μg/ml, after three days): no significant increase in cell numbers
- activity at 10 µg/mL (L-M cells [9]; Mus musculus, 96 h, 10 μg/ml, fourth day, read-out: growth as % of the control): 50%
- minimal effective concentration (L-M cells [9]; Mus musculus, L-M cells, 10 μg/ml or greater, read-out: concentration at which growth was inhibited): ≥ 10 µg/mL
